Results published in BindingDB's records for doi:10.1111/j.1747-0285.2009.00910.x (Universit&Agrave, 2010).

molecular target: Cannabinoid receptor 1 (Rattus norvegicus, UniProt P20272); assay: Binding Assay; details: pH 7.4; 25 °C
Experimental: CB1 competitive assay were performed in rat cerebellar membranes using [3H]WIN 55212-2 from Perkin-Elmer as a radioligand.

Sequence of Cannabinoid receptor 1 (P20272 whole entry): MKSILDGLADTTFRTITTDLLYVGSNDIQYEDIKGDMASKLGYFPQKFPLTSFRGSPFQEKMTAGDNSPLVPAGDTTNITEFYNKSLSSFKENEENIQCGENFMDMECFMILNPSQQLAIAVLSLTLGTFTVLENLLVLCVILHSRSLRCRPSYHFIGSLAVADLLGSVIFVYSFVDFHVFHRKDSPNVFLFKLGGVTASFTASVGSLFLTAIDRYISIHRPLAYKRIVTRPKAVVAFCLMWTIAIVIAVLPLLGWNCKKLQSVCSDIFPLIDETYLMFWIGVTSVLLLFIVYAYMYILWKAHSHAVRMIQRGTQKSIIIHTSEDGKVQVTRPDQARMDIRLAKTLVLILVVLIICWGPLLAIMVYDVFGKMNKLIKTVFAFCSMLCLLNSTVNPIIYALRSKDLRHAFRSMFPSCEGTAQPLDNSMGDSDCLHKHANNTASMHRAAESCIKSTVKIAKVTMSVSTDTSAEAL

First: Cc1ccc(NCc2cn(CCN3CCOCC3)c3ccccc23)cc1 [4-methyl-N-({1-[2-(morpholin-4-yl)ethyl]-1H-indol-3-yl}methyl)aniline, 10]
Second: Clc1ccc(NCc2cn(CCN3CCOCC3)c3ccccc23)cc1 [4-chloro-N-({1-[2-(morpholin-4-yl)ethyl]-1H-indol-3-yl}methyl)aniline, 9]
The Ki of the first is 1.5-fold lower: 15.7 nM for the first, 24.1 nM for the second. The first binds more tightly here.

Compared with `O=C1/C(=N\c2cccc3ccccc23)c2ccccc2N1CCN1CCOCC1` [3-(Arylimino)-1-(2-morpholin-4-yl-ethyl)-1,3-dihydro-indole-2-one, 4], `Cc1ccc2c(c1)/C(=N/c1cccc3ccccc13)C(=O)N2CCN1CCOCC1` [5-Substituted derivative, 6] is 7.9-fold lower in Ki: 553 nM for the first, 69.6 nM for the second.

Compared with `COc1ccc(/N=C2\C(=O)N(CCN3CCOCC3)c3ccc(Cl)cc32)cc1` [5-Substituted derivative, 2], `COc1ccc(/N=C2\C(=O)N(CCN3CCOCC3)c3ccc(C)cc32)cc1` [5-Substituted derivative, 3] is 5.2-fold higher in Ki: 74.6 nM for the first, 390 nM for the second.

`c1ccc2c(NCc3cn(CCN4CCOCC4)c4ccccc34)cccc2c1` [N-({1-[2-(morpholin-4-yl)ethyl]-1H-indol-3-yl}methyl)naphthalen-1-amine, 8] and `COc1ccc(NCc2cn(CCN3CCOCC3)c3ccccc23)cc1` [4-methoxy-N-({1-[2-(morpholin-4-yl)ethyl]-1H-indol-3-yl}methyl)aniline, 7] are within 1.5-fold of each other in Ki: 49.4 nM for the first, 42.6 nM for the second.

Going from `O=C1/C(=N\c2cccc3ccccc23)c2cc(Cl)ccc2N1CCN1CCOCC1` [5-Substituted derivative, 5] to `COc1ccc(/N=C2\C(=O)N(CCN3CCOCC3)c3ccccc32)cc1` [3-(Arylimino)-1-(2-morpholin-4-yl-ethyl)-1,3-dihydro-indole-2-one, 1], the Ki rises from 8.4 nM to 311 nM (37-fold).
